pIC50: −log10 of the molar value.
molecular target: T1, full-length SHP2 (His6-tagged SHP2(2-527)) (Homo sapiens, UniProt Q06124); experiment: SHP2 Enzymatic Assay (fluorescence intensity kinetic assay, DiFMUP hydrolysis); assay type: biochemical; details: not given
T1 construct: His6-tagged SHP2(2-527); His6; made in house; host or cells: E. coli
Experimental: A fluorescence intensity kinetic assay was configured for full-length SHP2 that monitors the amount of 6,8-difluoro-7-hydroxy-4-methylcoumarin (“DiFMU”) formed upon hydrolysis of 6,8-difluoro-4-methylumbelliferyl phosphate (“DiFMUP”) by SHP2. Assay mixtures consisted of 25 mM K^+HEPES, pH 7.4, 0.01% Triton X-100, 1 mM DTT, 50 mM KCl, 100 μg/mL bovine γ-globulin, 50 μM DiFMUP, 1 μM SHP2 activating peptide (LN(pY)IDLDLV(dPEG8)LST(pY)ASINFQK-amide), 1 nM full-length SHP2 (His6-tagged SHP2(2-527), recombinantly expressed in E. coli and purified in-house) and 2% dimethylsulfoxide (“DMSO”) (from compound). […] The assay was run in 384-well, polystyrene, low-volume, non-treated, black microtiter plates (Costar 4511) in a final volume of 20 μL. Low control wells lacked enzyme. The assays were initiated by the addition of a mixture of SHP2 and the activating peptide, and following a 15 second mix on an orbital shaker, were read in kinetic mode for 15 minutes (30 seconds/cycle) at ambient temperature on a PerkinElmer EnVision microplate reader (λEx=355 nm, λEm=460 nm). Initial velocities (slopes of the tangents at t=0) were estimated from exponential fits to the slightly nonlinear progress curves and then were converted to percent of control (“POC”) using the following equation:
[formula] • Where: Xmax Average Uninhibited Controls • Xmin Average Background A 4-parameter logistic model was the fit to the POC data for each compound. From that fit, the IC50 was estimated and is defined as the concentration of compound at which the curve crosses 50 POC.
The reported IC50 in Table 1 may be from a single assay or the mean of multiple assays.

T1 sequence (Q06124 2-527): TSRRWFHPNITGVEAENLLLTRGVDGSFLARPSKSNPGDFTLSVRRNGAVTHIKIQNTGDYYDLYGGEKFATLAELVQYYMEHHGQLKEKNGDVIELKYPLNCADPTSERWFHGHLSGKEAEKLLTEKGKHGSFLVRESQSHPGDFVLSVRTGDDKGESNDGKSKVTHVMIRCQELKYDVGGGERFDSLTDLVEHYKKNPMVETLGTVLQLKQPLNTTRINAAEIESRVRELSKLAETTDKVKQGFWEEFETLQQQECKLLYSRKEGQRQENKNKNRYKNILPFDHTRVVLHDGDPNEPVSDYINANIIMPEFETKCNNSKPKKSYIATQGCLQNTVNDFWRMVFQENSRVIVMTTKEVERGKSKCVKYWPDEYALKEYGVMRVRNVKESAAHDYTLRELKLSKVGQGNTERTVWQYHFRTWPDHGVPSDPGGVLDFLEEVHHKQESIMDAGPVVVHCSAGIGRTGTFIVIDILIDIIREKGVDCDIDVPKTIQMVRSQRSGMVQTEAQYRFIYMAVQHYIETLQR

Compound	pIC50
C[C@@]1(N)CCCN(c2cnc3nc(Sc4ccnc(N)c4Cl)ccc3n2)CC1 (single isomer, unassigned) [Example 74]	7.38
C[C@]1(N)CCCN(c2cnc3nc(Sc4ccnc(N)c4Cl)ccc3n2)CC1 (single isomer, unassigned) [Example 75]	7.52
N#Cc1ccc2c(c1)[C@@H](N)C1(CCN(c3cnc4nc(Sc5ccnc(N)c5Cl)ccc4n3)CC1)C2 (single isomer, unassigned) [Example 112]	7.48
COc1ccc2c(n1)CC1(CCN(c3cnc4nc(Sc5ccnc(N)c5Cl)ccc4n3)CC1)[C@H]2N (single isomer, unassigned) [Example 116]	7.44
Nc1nccc(Sc2ccc3nc(N4CCC5(CC4)Cc4ncc(F)cc4[C@@H]5N)cnc3n2)c1Cl (single isomer, unassigned) [Example 118]	7.35
CNc1nccc(Sc2ccc3nc(N4CCC[C@@](C)(N)CC4)cnc3n2)c1Cl (single isomer, unassigned) [Example 148]	7.03
CNc1nccc(Sc2ccc3nc(N4CCC[C@](C)(N)CC4)cnc3n2)c1Cl (single isomer, unassigned) [Example 149]	7.01
Cc1nccc(Sc2ccc3nc(N4CCC[C@@](C)(N)CC4)cnc3n2)c1Cl (single isomer, unassigned) [Example 150]	7.30
Cc1nccc(Sc2ccc3nc(N4CCC[C@](C)(N)CC4)cnc3n2)c1Cl (single isomer, unassigned) [Example 151]	7.12
CC1(N)CCN(c2cnc3nc(-c4cccc(Cl)c4)ccc3n2)CC1 [Example 3, 1-(6-(3-chlorophenyl)pyrido[2,3-b]pyrazin-2-yl)-4-methylpiperidin-4-amine]	5.74
C[C@@H]1OCC2(CCN(c3ccc4nc(Sc5cccc(Cl)c5Cl)cnc4n3)CC2)[C@@H]1N [Example 5, (3S,4S)-8-(2-((2,3-dichlorophenyl)thio)pyrido[2,3-b]pyrazin-6-yl)-3-methyl-2-oxa-8-azaspiro[4,5]decan-4-amine]	5.40
CC1(N)CCN(c2cnc3nc(Sc4cccc(Cl)c4Cl)ccc3n2)CC1 [Example 6, 1-(6-((2,3-dichlorophenyl)thio)pyrido[2,3-b]pyrazin-2-yl)-4-methylpiperidin-4-amine]	7.24
CC1(N)CCN(c2ccc3nc(Sc4cccc(Cl)c4Cl)cnc3n2)CC1 [Example 7, 1-(2-((2,3-dichlorophenyl)thio)pyrido[2,3-b]pyrazin-6-yl)-4-methylpiperidin-4-amine]	5.02
N[C@@H]1CCCC12CCN(c1cnc3nc(Sc4cccc(Cl)c4Cl)ccc3n1)CC2 [Example 8, (R)-8-(6-((2,3-dichlorophenyl)thio)pyrido[2,3-b]pyrazin-2-yl)-8-azaspiro[4.5]decan-1-amine]	7.23
NC1(CO)CCN(c2cnc3nc(Sc4cccc(Cl)c4Cl)ccc3n2)CC1 [Example 9, (4-amino-1-(6-((2,3-dichlorophenyl)thio)pyrido[2,3-b]pyrazin-2-yl)piperidin-4-yl)methanol]	7.21
CC1(N)CCN(c2cnc3nc(Cc4cccc(Cl)c4Cl)ccc3n2)CC1 [Example 10, 1-(6-(2,3-dichlorobenzyl)pyrido[2,3-b]pyrazin-2-yl)-4-methylpiperidin-4-amine]	5.70
CC1(N)CCN(c2cnc3nc(-c4cccc(Cl)c4C(F)(F)F)ccc3n2)CC1 [Example 11, 1-(6-(3-chloro-2-(trifluoromethyl)phenyl)pyrido[2,3-b]pyrazin-2-yl)-4-methylpiperidin-4-amine]	5.64

Compound	pIC50
COc1cccc(Sc2ccc3nc(N4CCC(C)(N)CC4)cnc3n2)c1Cl [Example 14, 1-(6-((2-chloro-3-methoxyphenyl)thio)pyrido[2,3-b]pyrazin-2-yl)-4-methylpiperidin-4-amine]	7.00
CC1(N)CCN(c2cnc3nc(-c4cccc(Cl)c4F)ccc3n2)CC1 [Example 16, 1-(6-(3-chloro-2-fluorophenyl)pyrido[2,3-b]pyrazin-2-yl)-4-methylpiperidin-4-amine]	6.54
CC1(N)CCN(c2cnc3nc(Nc4cccc(Cl)c4Cl)ccc3n2)CC1 [Example 17, 2-(4-amino-4-methylpiperidin-1-yl)-N-(2,3-dichlorophenyl)pyrido[2,3-b]pyrazin-6-amine]	6.06
CN(C)C1(C)CCN(c2cnc3nc(-c4cccc(Cl)c4Cl)ccc3n2)CC1 [Example 18, 1-(6-(2,3-dichlorophenyl)pyrido[2,3-b]pyrazin-2-yl)-N,N,4-trimethylpiperidin-4-amine]	6.24
CC1(N)CCN(c2cnc3nc(-c4ccnc(N5CCCC5)c4Cl)ccc3n2)CC1 [Example 19, 1-(6-(3-chloro-2-(pyrrolidin-1-yl)pyridin-4-yl)pyrido[2,3-b]pyrazin-2-yl)-4-methylpiperidin-4-amine]	5.77
COc1nccc(Sc2ccc3nc(N4CCC(C)(N)CC4)cnc3n2)c1Cl [Example 20, 1-(6-((3-chloro-2-methoxypyridin-4-yl)thio)pyrido[2,3-b]pyrazin-2-yl)-4-methylpiperidin-4-amine]	6.44
COc1nccc(-c2ccc3nc(N4CCC5(CC4)CO[C@@H](C)[C@H]5N)cnc3n2)c1Cl [Example 21, (3S,4S)-8-(6-(3-chloro-2-methoxypyridin-4-yl)pyrido[2,3-b]pyrazin-2-yl)-3-methyl-2-oxa-8-azaspiro[4.5]decan-4-amine]	5.24
CC1(CN)CCN(c2cnc3cc(-c4cccc(Cl)c4Cl)ccc3n2)CC1 [Example 23, (1-(6-(2,3-dichlorophenyl)quinoxalin-2-yl)-4-methylpiperidin-4-yl)methanamine]	5.60
C[C@@]1(N)CCN(c2cnc3nc(Sc4ccnc(N)c4Cl)ccc3n2)C1 [Example 24, (R)-4-((2-(3-amino-3-methylpyrrolidin-1-yl)pyrido[2,3-b]pyrazin-6-yl)thio)-3-chloropyridin-2-amine]	6.70
COc1ccc(F)c(-c2ccc3nc(N4CCC(C)(N)CC4)cnc3n2)c1Cl [Example 26, 1-(6-(2-chloro-6-fluoro-3-methoxyphenyl)pyrido[2,3-b]pyrazin-2-yl)-4-methylpiperidin-4-amine]	6.04
CC1(CN)CCN(c2cnc3nc(-c4cccc(Cl)c4Cl)ccc3n2)CC1 [Example 27, (1-(6-(2,3-dichlorophenyl)pyrido[2,3-b]pyrazin-2-yl)-4-methylpiperidin-4-yl)methanamine]	6.30
NCC1CCN(c2cnc3nc(-c4cccc(Cl)c4Cl)ccc3n2)C1 (centres unmarked) [Example 28, (1-(6-(2,3-dichlorophenyl)pyrido[2,3-b]pyrazin-2-yl)pyrrolidin-3-yl)methanamine]	6.08
CN(CCN)c1cnc2nc(-c3cccc(Cl)c3Cl)ccc2n1 [Example 29, N1-(6-(2,3-dichlorophenyl)pyrido[2,3-b]pyrazin-2-yl)-N1-methylethane-1,2-diamine]	6.49
COc1ccc(-c2ccc3nc(N4CCC(C)(N)CC4)cnc3n2)c(Cl)c1Cl [Example 30, 1-(6-(2,3-dichloro-4-methoxyphenyl)pyrido[2,3-b]pyrazin-2-yl)-4-methylpiperidin-4-amine]	6.38
C[C@@]1(N)CCN(c2cnc3nc(-c4cccc(Cl)c4Cl)ccc3n2)C1 [Example 32, (R)-1-(6-(2,3-dichlorophenyl)pyrido[2,3-b]pyrazin-2-yl)-3-methylpyrrolidin-3-amine]	6.38
Cn1ncc2cccc(Sc3ccc4nc(N5CCC(C)(N)CC5)cnc4n3)c21 [Example 34, 4-methyl-1-(6-((1-methyl-1H-indazol-7-yl)thio)pyrido[2,3-b]pyrazin-2-yl)piperidin-4-amine]	5.59

same assay, conditions: full-length SHP2 with 1 μM activating peptide, 50 μM DiFMUP; single assay or mean of multiple assays; read-out: Biological Example 1 IC50

Compound	pIC50
CC1(N)CCN(c2cnc3nc(-c4cccc(Cl)c4Cl)ccc3n2)CC1 [Example 2, 1-(6-(2,3-dichlorophenyl)pyrido[2,3-b]pyrazin-2-yl)-4-methylpiperidin-4-amine]	7.03
CC1(CN)CCN(c2cnc3nc(Sc4ccnc(N)c4Cl)ccc3n2)CC1 [Example 12, 4-((2-(4-(aminomethyl)-4-methylpiperidin-1-yl)pyrido[2,3-b]pyrazin-6-yl)thio)-3-chloropyridin-2-amine]	7.21
CC1(N)CCN(c2cnc3nc(Oc4cccc(Cl)c4Cl)ccc3n2)CC1 [Example 15, 1-(6-(2,3-dichlorophenoxy)pyrido[2,3-b]pyrazin-2-yl)-4-methylpiperidin-4-amine]	6.47
CC1(N)CCN(c2cnc3cc(-c4cccc(Cl)c4Cl)ccc3n2)CC1 [Example 22, 1-(6-(2,3-dichlorophenyl)quinoxalin-2-yl)-4-methylpiperidin-4-amine]	6.15
CNC1(C)CCN(c2cnc3nc(Sc4ccnc(N)c4Cl)ccc3n2)CC1 [Example 31, 3-chloro-4-((2-(4-methyl-4-(methylamino)piperidin-1-yl)pyrido[2,3-b]pyrazin-6-yl)thio)pyridin-2-amine]	7.00

Source: US12187721B2, “Protein tyrosine phosphatase inhibitors” (Array BioPharma Inc., priority 2018, dated 2025)
